According to article PMC3804601, “Single Nucleotide Polymorphisms of Human STING Can Affect Innate Immune Response to Cyclic Dinucleotides” (PLoS ONE, 2013):

Assays:
[1] = target: T1, hSTING (stimulator of interferon genes) (Homo sapiens, UniProt Q86WV6); experiment: IFN-β luciferase reporter in STING-transfected, digitonin-permeabilized HEK293T cells (vector control inactive); type: cell-based
T1 construct: gene STING1; hSTING cDNA with C-terminal Flag tag expressed in HEK293T cells

[2] = target: T2, hSTING (stimulator of interferon genes) (Homo sapiens, UniProt Q86WV6, H232R); experiment: isothermal titration calorimetry; DSF shift (+[…]°C); type: binding
T2 construct: gene STING1; C-terminal domain, residues 149-341, C-terminal 6×His tag (WT = R232)

[3] = target: T3, hSTING (stimulator of interferon genes) (Homo sapiens, UniProt Q86WV6, G230A/H232R); experiment: isothermal titration calorimetry; DSF shift (+[…]°C); type: binding
T3 construct: gene STING1; C-terminal domain, residues 149-341, C-terminal 6×His tag (WT = R232)
T3 sequence (Q86WV6 149-341 G230A/H232R): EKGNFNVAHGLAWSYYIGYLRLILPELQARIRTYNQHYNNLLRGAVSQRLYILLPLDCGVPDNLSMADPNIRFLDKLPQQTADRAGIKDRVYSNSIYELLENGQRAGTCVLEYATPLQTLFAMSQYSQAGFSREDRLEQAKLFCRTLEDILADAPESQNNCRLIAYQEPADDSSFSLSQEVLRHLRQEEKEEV

T1 sequence (Q86WV6 whole entry): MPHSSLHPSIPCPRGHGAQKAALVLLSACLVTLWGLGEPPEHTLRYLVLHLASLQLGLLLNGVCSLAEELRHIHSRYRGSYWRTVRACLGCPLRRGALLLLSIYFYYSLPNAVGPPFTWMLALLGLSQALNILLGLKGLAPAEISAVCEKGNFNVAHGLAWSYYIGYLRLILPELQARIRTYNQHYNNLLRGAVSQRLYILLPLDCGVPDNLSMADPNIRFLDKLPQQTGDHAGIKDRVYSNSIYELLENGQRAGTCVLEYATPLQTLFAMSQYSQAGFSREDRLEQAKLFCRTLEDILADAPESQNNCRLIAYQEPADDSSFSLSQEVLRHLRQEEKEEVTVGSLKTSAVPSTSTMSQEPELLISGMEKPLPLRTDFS
T2 sequence (Q86WV6 149-341 H232R): as the sequence (Q86WV6 149-341 G230A/H232R) above, with A82G counted along it

SMILES | IFN-β luciferase reporter in STING-transfected, digitonin-permeabilized HEK293T [1] | Kd [2] [nM] | Kd [3] [nM]
Nc1ncnc2c1ncn2[C@@H]1O[C@@H]2COP(=O)(O)O[C@H]3[C@@H](O)[C@H](n4cnc5c(N)ncnc54)O[C@@H]3COP(=O)(O)O[C@H]2[C@H]1O [c-di-AMP] | 16.1 fold (ratio to unstimulated) |  | 
Nc1nc2c(ncn2[C@@H]2O[C@@H]3CO[P@](=O)(O)O[C@H]4[C@@H](O)[C@H](n5cnc6c(=O)[nH]c(N)nc65)O[C@@H]4CO[P@](=O)(O)O[C@H]3[C@H]2O)c(=O)[nH]1 [c-di-GMP] |  | 3300 | 1900
